These results are taken from PMC12040169 (PLOS Biology, 2025).

The first data set in a line: in vitro. The note with it: human, hela cells, % viability.
In general, viability refers to a read-out of living cells in per cent, often relative to untreated cells. Take `O=C1CCC(=O)N1CCOc1nccnc1OC1CCN(CCc2c[nH]c3ccccc23)CC1` [CBK084355]: the viability at 28.5 h, 10 µM worked out at 94.6%.
On the same count and under the same terms, the value for `O=C1CCC(=O)N1CCOc1nccnc1OC1CCN(CC2CCCCC2)CC1` [CBK084357] was 105%; that for `O=C1CCC(=O)N1CCOc1nccnc1OC1CCN(CCc2ccc3ccccc3c2)CC1` [CBK084358] was 99.4%; that for `O=C1CCC(=O)N1CCOc1nccnc1OC1CCN(CCc2ccccn2)CC1` [CBK084360] was 99.5%.
Still for that read-out and setting: the value for `O=[N+]([O-])c1ccc(CN2CCC(Oc3cncc(OCC4COc5ccccc5O4)n3)C2)cc1` (centres unmarked) [CBK084369] was 99.3%.
As for `Fc1ccc(CCN2CCC(Oc3cncc(OCC4COc5ccccc5O4)n3)C2)cc1` (centres unmarked) [CBK084383], the viability at 28.5 h, 10 µM stood at 99.8%.
Still for that read-out and setting: the value for `CCOC(=O)CN1CCC(Oc2cncc(Oc3ccc(OC)c(OC)c3)n2)C1` (centres unmarked) [CBK084405] was 91.3%; that for `COc1ccc(Oc2cncc(OC3CCN(CC4CCCCC4)C3)n2)cc1OC` (centres unmarked) [CBK084413] was 96.4%.
Turning to `CCN(CC)C(=O)CN1CCC(Oc2cncc(OCc3ccc(Cl)c(Cl)c3)n2)C1` (centres unmarked) [CBK084431], the viability at 28.5 h, 10 µM was determined as 98.2%.
On the same count and under the same terms, the value for `CCOC(=O)CN1CCC(Oc2cncc(OCc3ccc(Cl)c(Cl)c3)n2)C1` (centres unmarked) [CBK084432] was 91.7%.
As for `Clc1ccc(CN2CCC(Oc3cncc(OCc4cccnc4)n3)C2)cc1` (centres unmarked) [CBK084451], the viability at 28.5 h, 10 µM stood at 104%.
Turning to `O=[N+]([O-])c1ccc(CN2CCC(Oc3cncc(OCc4cccnc4)n3)C2)cc1` (centres unmarked) [CBK084456], the viability at 28.5 h, 10 µM came out at 91.6%.
With `c1cncc(COc2cncc(OC3CCN(Cc4ccc5c(c4)OCO5)C3)n2)c1` (centres unmarked) [CBK084458], the viability at 28.5 h, 10 µM was 88.9%.
Turning to `CCOC(=O)CN1CCC(Oc2cncc(OCc3cccnc3)n2)C1` (centres unmarked) [CBK084462], the viability at 28.5 h, 10 µM was found to be 99.4%.
The same measure, in the same setting: the value for `c1cncc(COc2cncc(OC3CCN(CCN4CCOCC4)C3)n2)c1` (centres unmarked) [CBK084463] was 99.7%; that for `OCCCN1CCC(Oc2cncc(OCc3cccnc3)n2)C1` (centres unmarked) [CBK084465] was 91.7%; that for `N#CCCCN1CCC(Oc2cncc(OCc3cccnc3)n2)C1` (centres unmarked) [CBK084466] was 105%.
On the same count and under the same terms, the result for `Fc1ccc(CCN2CCC(Oc3cncc(OCc4cccnc4)n3)C2)cc1` (centres unmarked) [CBK084469] reads 97.8%.
Still for that read-out and setting: the result for `Fc1ccccc1CN1CCC(Oc2cncc(OCCN3CCOCC3)n2)C1` (centres unmarked) [CBK084479] reads 94.9%.
As to `Clc1ccc(CN2CCC(Oc3cncc(OCCN4CCOCC4)n3)C2)cc1` (centres unmarked) [CBK084480], the viability at 28.5 h, 10 µM is 90.9%.
With `O=[N+]([O-])c1ccc(CN2CCC(Oc3cncc(OCCN4CCOCC4)n3)C2)cc1` (centres unmarked) [CBK084485], the viability at 28.5 h, 10 µM came out at 95.2%.
On the same count and under the same terms, the result for `c1cc2c(cc1CN1CCC(Oc3cncc(OCCN4CCOCC4)n3)C1)OCO2` (centres unmarked) [CBK084487] reads 96.7%; that for `NC(=O)CN1CCC(Oc2cncc(OCCN3CCOCC3)n2)C1` (centres unmarked) [CBK084488], 111%; that for `Cc1cccc(C)c1NC(=O)CN1CCC(Oc2cncc(OCCN3CCOCC3)n2)C1` (centres unmarked) [CBK084489], 95.5%.
On the same count and under the same terms, the value for `CCN(CC)C(=O)CN1CCC(Oc2cncc(OCCN3CCOCC3)n2)C1` (centres unmarked) [CBK084490] was 101%; that for `CCOC(=O)CN1CCC(Oc2cncc(OCCN3CCOCC3)n2)C1` (centres unmarked) [CBK084491] was 89.3%; that for `c1ccc(OCCN2CCC(Oc3cncc(OCCN4CCOCC4)n3)C2)cc1` (centres unmarked) [CBK084499] was 113%.
Same read-out and setting: the result for `c1ccc2c(CCN3CCC(Oc4cncc(OCCN5CCOCC5)n4)C3)c[nH]c2c1` (centres unmarked) [CBK084500] reads 100%; that for `c1ccc2cc(CCN3CCC(Oc4cncc(OCCN5CCOCC5)n4)C3)ccc2c1` (centres unmarked) [CBK084503], 92.7%.
For `Nc1ncc(-c2ccc(C(=O)O)cc2)nc1-c1ccc(C(=O)N2CCOCC2)cc1` [CBK084518], the viability at 28.5 h, 10 µM was 90.8%.
As to `CC(C)(C)c1ccc(-c2cnc(N)c(-c3ccc(C(=O)N4CCOCC4)cc3)n2)cc1` [CBK084543A], the viability at 28.5 h, 10 µM was 98.2%.
`COc1ccc(Br)c(C(=O)Nc2[nH]nc(O)c2Cc2c(Cl)cccc2Cl)c1` [CBK084554]: the viability at 28.5 h, 10 µM amounted to 111%.
Still for that read-out and setting: the value for `CC[C@@H]1CCCCN1C(=O)c1ccc(Cl)c(C)c1` [CBK084565] was 91.6%.
The same measure, in the same setting: the value for `COc1ccc2[nH]c3c(c2c1)CCN(CC(C)O)C31CCN(CCOc2ccccc2)C1` (centres unmarked) [CBK084612T] was 73%; that for `COc1ccc([C@H](NC(=O)C2CCN(C(=O)OCc3ccccc3)CC2)c2ccccc2C)cn1` [CBK084639] was 92.9%.
The same measure, in the same setting: the value for `O=C(CN(C(=O)CNC(=O)c1cccs1)c1cccc(C(F)(F)F)c1)NC1CCCCC1` [CBK084697] was 94.5%; that for `O=C(NCC(=O)N(c1cccc(C(F)(F)F)c1)C(C(=O)NCc1ccco1)c1ccccc1F)c1ccco1` (centres unmarked) [CBK084740] was 96%.
As to `COc1ccc(Cn2nnnc2C(CC(C)C)N2CCC(C(N)=O)CC2)cc1` (centres unmarked) [CBK084783], the viability at 28.5 h, 10 µM turned out to be 90%.
On the same count and under the same terms, the result for `O=C(NC1CCCCC1)NC1CCN(Cc2nnnn2Cc2ccco2)CC1` [CBK085007] reads 100%; that for `CC(=O)Nc1ccc(NC2SC(=O)N(c3ccccc3)C2=O)cc1` (centres unmarked) [CBK085110], 88.4%.
Same read-out and setting: the value for `Cc1cc(NS(=O)(=O)c2ccc(NC(=O)C(c3ccccc3)c3ccccc3)cc2)no1` [CBK085112] was 94%; that for `O=C(NC(Cc1c[nH]c2ccccc12)C(=O)NC1CCCCC1)OCc1ccccc1` (centres unmarked) [CBK085144] was 89%.
With `CCc1nnc(NS(=O)(=O)c2ccc(NCc3ccccc3O)cc2)s1` [CBK085149], the viability at 28.5 h, 10 µM came to 113%.
With `Cc1[nH]n(-c2nc3ccccc3o2)c(=O)c1Cc1c(Cl)cccc1Cl` [CBK085382], the viability at 28.5 h, 10 µM came to 96.5%.
Same read-out and setting: the value for `Fc1ccc2[nH]c3c(c2c1)CCNC31CCN(CCOc2ccccc2)C1` (centres unmarked) [CBK085404T] was 98%.
Same read-out and setting: the result for `Brc1cn2ccnc2c(N2CCCC2)n1` [CBK085449] reads 117%; that for `Cc1cc(COc2cc(N3CCCNCC3)ncn2)no1` [CBK085462], 95.4%; that for `c1nc(OCCN2CCOCC2)cc(N2CCCNCC2)n1` [CBK085466], 86.2%.
Still for that read-out and setting: the result for `c1ccc2c(c1)OCC(COc1nccc(N3CCCNCC3)n1)O2` (centres unmarked) [CBK085471] reads 89.8%; that for `Cc1nc2ccc(NC(=O)Nc3ccnc4cccnc34)cc2o1` [CBK085498], 90%.
Consider `CS(=O)(=O)Nc1ccc2cc(-c3cccc(C(F)(F)F)c3)cnc2n1` [CBK085671], for which the viability at 28.5 h, 10 µM amounted to 94.1%.
Still for that read-out and setting: the value for `COc1ccc(-c2nc(NS(C)(=O)=O)cc3cccnc23)cc1C` [CBK085677] was 85.5%.
For `CS(=O)(=O)Nc1cc2cccnc2nc1-c1ccccc1` [CBK085689], the viability at 28.5 h, 10 µM was 104%.
The same measure, in the same setting: the result for `COc1cc(-c2nc3ncccc3cc2NS(C)(=O)=O)cc(OC)c1OC` [CBK085697] reads 92.7%; that for `Nc1cc2ccccc2c(-c2ccncc2)n1` [CBK085708], 99.1%.
On the same count and under the same terms, the value for `Nc1cc2ccccc2c(-c2cc(F)cc(F)c2)n1` [CBK085711] was 97%.
Still for that read-out and setting: the value for `Nc1cc2ccccc2c(-c2ccc(OC(F)(F)F)cc2)n1` [CBK085725] was 99.4%.
Take `CSc1ccc(-c2nc(NC(=O)C(C)C)cc3ccccc23)cc1` [CBK085735]: the viability at 28.5 h, 10 µM is 95.5%.
On the same count and under the same terms, the value for `CC(C)C(=O)Nc1cc2ccccc2c(-c2cccc(C(F)(F)F)c2)n1` [CBK085738] was 95.6%; that for `CS(=O)(=O)Nc1cc2ccccc2c(-c2ccncc2)n1` [CBK085746] was 92%.
Same read-out and setting: the result for `CS(=O)(=O)Nc1cc2ccccc2c(-c2ccsc2)n1` [CBK085748] reads 89.7%.
Still for that read-out and setting: the value for `CS(=O)(=O)Nc1cc2ccccc2c(-c2cccc(C(F)(F)F)c2)n1` [CBK085754] was 92.9%.
For `CS(=O)(=O)Nc1cc2ccccc2c(-c2ccc(OC(F)(F)F)cc2)n1` [CBK085757], the viability at 28.5 h, 10 µM amounted to 121%.
Still for that read-out and setting: the value for `CCNc1cc2ccccc2c(-c2cccc(C(F)(F)F)c2)n1` [CBK085772] was 101%; that for `CNC(=O)CCCc1[nH]nc(O)c1Cc1c(Cl)cccc1Cl` [CBK085827] was 89.4%; that for `Nc1cccc(Sc2ncccn2)c1` [CBK085844] was 93.4%.
Same read-out and setting: the value for `CC(=O)Nc1ccc(Sc2ccccn2)cc1` [CBK085853] was 101%.
The same measure, in the same setting: the result for `COc1nc(SC)nc2[nH]ccc12` [CBK085861] reads 95%.
As for `Cc1nc2ccc(Br)cc2c(=O)n1Cc1cccs1` [CBK085890], the viability at 28.5 h, 10 µM came to 89.7%.
For the compound `N#CCC(=O)Nc1ccc(F)c(Cl)c1` [CBK085905], the viability at 28.5 h, 10 µM worked out at 95.4%.
Same read-out and setting: the value for `CCCCN1C(=O)N(c2nnc(C(C)(C)C)s2)C(=O)C1c1ccc(Cl)c(Cl)c1` (centres unmarked) [CBK085921] was 114%; that for `Cc1ccc(-c2nc3ccccc3[nH]2)cc1` [CBK085933] was 89.9%; that for `Fc1c(CN2CCOCC2)cccc1CN1CCOCC1` [CBK085967] was 97.6%.
On the same count and under the same terms, the value for `O=C(Nc1ccccc1F)c1cc(Cl)sc1Cl` [CBK085969] was 93.3%; that for `CC(=O)c1nnn(-c2cc(Cl)ccc2Cl)c1C` [CBK085973] was 104%.
Same read-out and setting: the result for `CC1CCN(C(=S)NC2CC3CCC2C3)CC1` (centres unmarked) [CBK085998] reads 91.3%; that for `CC(C)(C)OC(=O)N1CCC(CNS(=O)(=O)c2cccc3cccnc23)CC1` [CBK086017], 97.1%.

The data set is the same for the next values; noted with them: human, hela cells, % viability, bulk resorufin, single well.
Consider `CCOC(=O)N1CCC2(CC1)Oc1ccc(Cl)cc1O2` [CBK084590], for which the viability at 28.5 h, 10 µM amounted to 94.2%.
Still for that read-out and setting: the value for `CCOC(=O)N1CCC2(CC1)Oc1ccc(-c3cccc4ncccc34)cc1O2` [CBK085454] was 99.8%; that for `c1ccc(-c2ccc3c(c2)OC2(CCNCC2)O3)cc1` [CBK085501] was 103%.
